Several values for one entry are separate records, joined by “and”; a condition that tells them apart may be missing. Equal values may be shown once. Activity calls are given as the source filed them.
Tests used:
[1] = general mammalian cell viability loss – inhibitor set, cherry-pick, set 2, cytotoxicity control for miR-122 modulator project, dose response (AID 720697); format: functional, cell-based
[2] = general mammalian cell viability loss – activator set, cherry-pick, cytotoxicity control for miR-122 modulator project, dose response (AID 720690); format: functional, cell-based;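 note: HEK293T human cells scored for general mammalian cytotoxicity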
[3] = viability loss in A549 lung cells – cell-based, 24 h, CellTiter-Glo luminescence, cherry-picks, cytotoxicity control, dose response (AID 1053115); format: functional; details: A549, 24 h
[4] = activation of miR-122 Renilla sensor silencing – cell-based, Huh7 psiCHECK-miR122, Renilla luciferase, cherry-picked, dose response (AID 651956); format: functional;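 note: huh7 hepatoma cells stably carrying a psiCHECK-2 miR-122 sensor plasmid; renilla luciferase signal reporting endogenous miR-122 activity after 48 h compound exposure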
[5] = viability loss in HEK293 kidney cells – cell-based, cherry-picks, set 5, cytotoxicity control, dose response (AID 1053117); format: functional
[6] = blockers of FN fibrillogenesis by fibroblasts – AH1F cells, Alexa488-FN fluorescence, cherry-picks, dose response (AID 1035475); format: functional, cell-based
[7] = molecular target: Metabotropic glutamate receptor 3 (Rattus norvegicus, UniProt P31422); assay: inhibition of rat mGlu3 glutamate signaling – HEK/GIRK cells, thallium flux, dose response (AID 651839); format: functional
Sequence of Metabotropic glutamate receptor 3 (P31422 whole entry): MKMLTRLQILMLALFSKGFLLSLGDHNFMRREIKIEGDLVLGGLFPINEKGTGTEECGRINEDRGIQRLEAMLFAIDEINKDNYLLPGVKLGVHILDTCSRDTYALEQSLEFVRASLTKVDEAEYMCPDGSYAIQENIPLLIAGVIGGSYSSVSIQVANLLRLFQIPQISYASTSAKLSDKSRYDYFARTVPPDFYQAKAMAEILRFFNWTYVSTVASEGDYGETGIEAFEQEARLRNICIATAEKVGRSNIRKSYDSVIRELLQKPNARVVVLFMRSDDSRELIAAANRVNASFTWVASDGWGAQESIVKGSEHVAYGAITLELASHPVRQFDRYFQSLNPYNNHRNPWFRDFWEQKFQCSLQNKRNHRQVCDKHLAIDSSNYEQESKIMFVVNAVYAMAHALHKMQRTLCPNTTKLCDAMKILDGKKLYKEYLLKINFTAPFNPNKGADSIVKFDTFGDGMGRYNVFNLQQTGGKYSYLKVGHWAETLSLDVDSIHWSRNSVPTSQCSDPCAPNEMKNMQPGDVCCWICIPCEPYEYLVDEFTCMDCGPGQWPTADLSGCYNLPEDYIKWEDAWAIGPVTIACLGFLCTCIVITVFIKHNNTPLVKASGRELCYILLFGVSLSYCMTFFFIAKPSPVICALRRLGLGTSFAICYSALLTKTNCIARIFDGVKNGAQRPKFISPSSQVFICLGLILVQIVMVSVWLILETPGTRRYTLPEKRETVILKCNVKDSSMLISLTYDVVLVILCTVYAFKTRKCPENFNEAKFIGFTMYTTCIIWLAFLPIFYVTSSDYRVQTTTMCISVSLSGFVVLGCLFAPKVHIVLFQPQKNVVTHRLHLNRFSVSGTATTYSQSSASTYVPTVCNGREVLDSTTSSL

[8] = inhibitors of non-replicating M. tuberculosis, dose response, luciferase, dry powder (AID 651620); format: functional; details: Mycobacterium tuberculosis
[9] = inhibitors of non-replicating M. tuberculosis, dose response, luciferase, dry powder (AID 651619); format: functional; details: Mycobacterium tuberculosis
[10] = viability loss in CEM21 cells – cell-based, plate reader, dry powder, cytotoxicity control, dose response (AID 687026); format: functional
[11] = inhibition of Env-driven cell fusion – HIV entry, plate reader, dry powder, dose response (AID 687023); format: functional, cell-based
[12] = anti-trypanosomal activity in BESM host cells – imaging, CA-I/72 strain, bovine embryo skeletal muscle, dry powder, dose response (AID 651885); format: functional, cell-based
[13] = Trypanosoma cruzi replication inhibitors in host cells – cell-based, plate reader, dry powder samples, dose response (AID 651845); format: functional
[14] = T. cruzi growth inhibition in host cells, dose response, cell-based, plate reader, dry powder, set 2 (AID 652275); format: functional
[15] = molecular target: Metabotropic glutamate receptor 7 (Homo sapiens, UniProt Q14831); assay: potentiation of glutamate EC20 at mGlu7 – cell-based, calcium mobilization, Galpha15, dose response (AID 743384); format: functional
Sequence of Metabotropic glutamate receptor 7 (Q14831 whole entry): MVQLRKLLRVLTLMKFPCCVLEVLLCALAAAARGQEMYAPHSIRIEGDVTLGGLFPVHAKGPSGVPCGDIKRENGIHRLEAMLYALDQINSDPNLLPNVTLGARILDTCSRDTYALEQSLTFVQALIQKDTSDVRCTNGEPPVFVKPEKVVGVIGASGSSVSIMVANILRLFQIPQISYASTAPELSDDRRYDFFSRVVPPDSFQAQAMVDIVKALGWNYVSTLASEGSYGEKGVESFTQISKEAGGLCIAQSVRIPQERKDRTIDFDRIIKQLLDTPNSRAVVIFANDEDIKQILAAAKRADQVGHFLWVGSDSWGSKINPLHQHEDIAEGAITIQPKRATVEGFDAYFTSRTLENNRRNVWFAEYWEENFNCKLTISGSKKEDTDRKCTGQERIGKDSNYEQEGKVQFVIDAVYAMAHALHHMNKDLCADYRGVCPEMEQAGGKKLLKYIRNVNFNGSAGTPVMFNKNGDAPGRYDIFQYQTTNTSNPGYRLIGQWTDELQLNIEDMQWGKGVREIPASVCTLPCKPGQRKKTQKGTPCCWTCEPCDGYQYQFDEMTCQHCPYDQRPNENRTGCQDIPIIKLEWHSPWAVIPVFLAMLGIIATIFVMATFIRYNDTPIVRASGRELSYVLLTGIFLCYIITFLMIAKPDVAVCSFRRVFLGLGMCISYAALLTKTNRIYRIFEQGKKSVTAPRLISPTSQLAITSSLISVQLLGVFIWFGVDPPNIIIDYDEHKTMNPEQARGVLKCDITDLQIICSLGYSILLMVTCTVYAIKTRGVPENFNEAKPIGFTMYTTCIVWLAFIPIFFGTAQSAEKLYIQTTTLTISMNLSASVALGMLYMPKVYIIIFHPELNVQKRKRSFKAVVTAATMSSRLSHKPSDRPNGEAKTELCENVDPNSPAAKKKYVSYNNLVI

**Q.** For C[C@H](CO)N1C[C@H](C)[C@H](CN(C)Cc2ccc(-c3ccccc3)cc2)Oc2cc(C#C[C@@H](C)O)ccc2S1(=O)=O, which AC50 [1] is on record?
**A.** Its AC50 is 2.82 µM (active).

**Q.** What about the AC50 [2] of the same compound?
**A.** The AC50 was 12.3 µM (active).

**Q.** And the AC50 [3]?
**A.** Its AC50 is 50.9 µM (active).

**Q.** What about the AC50 [4] of the same compound?
**A.** The AC50 was 37.3 µM (active).

**Q.** What does the source list for C[C@H]1CN([C@@H](C)CO)C(=O)c2cc(NC(=O)C3CCCCC3)ccc2O[C@@H]1CN(C)Cc1ccc(-c2ccccc2)cc1?
**A.** AC50 [5]: 51.3 µM (active); AC50 [6]: > 70 µM (inactive)

**Q.** For COc1ccc(-c2ccc3cc(C(=O)N4CCCC(CO)C4)ccc3c2)cc1OC (stereo not given), which IC50 [7] is on record?
**A.** The IC50 was 2.61 µM.

**Q.** Which IC90 [8] does the source give for [N-]=[N+]=NCCOCCNC(=O)CCCOc1ccc(C[S+]([O-])c2nnc(-c3ccc(F)cc3)o2)nc1 (stereo not given) here?
**A.** The IC90 was 8 µM (active).

**Q.** And the IC90 [9]?
**A.** The IC90 was 8 µM (active).

**Q.** For CCOc1ccc(S(=O)(=O)NCc2ccccc2)cc1, which AC50 [10] is on record?
**A.** Its AC50 is > 70 µM (inactive).

**Q.** What about the AC50 [11] of the same compound?
**A.** Its AC50 is 66.7 µM (active) and > 70 µM (inactive).

**Q.** Which results are given for CC(C)N1C[C@@H](C)[C@H](CN(C)Cc2cccc(Oc3ccccc3)c2)Oc2c(NC(=O)c3ccncc3)cccc2C1=O?
**A.** IC50 [12]: 1.5 µM (inconclusive); AC50 [13]: 0.00713 µM (active); AC50 [14]: 0.075 nM (active)

**Q.** With COC(=O)c1ccc(-n2c(C)cc(C(=O)CSCc3cccc(C)c3)c2C)cc1 as the compound, how does the EC50 [15] read?
**A.** The EC50 was 10 µM (active).

Reference: ChEMBL document CHEMBL1201862, “PubChem BioAssay data set” (2004)
